From US7572786B2, “Substituted 1-piperidin-3-yl-4-piperidin-4-yl-piperazine derivatives and their use as neurokinin antagonists” (Janssen Pharmaceutica, N.V., priority 2002, dated 2009) come the findings set out here.

The target of one test is NK1 (Homo sapiens, UniProt P25103). Nature of the test: Signal transduction (ST), intracellular Ca++ (FLIPR), NK1 antagonism. The test is classed as cell-based. The note with it: for IC50: read-out: pIC50 NK1 (converted). On the procedure: (§1) This test evaluates in vitro functional NK1 antagonistic activity. For the measurements of intracellular Ca^++ concentrations the cells were grown on 96-well (black wall/transparent bottom) plates from Costar for 2 days until they reached confluence. The cells were loaded with 2 μM Fluo3 in DMEM containing 0.1% BSA and 2.5 mM probenecid for 1 h at 37° C. […] The cells were preincubated with a concentration range of antagonists for 20 min at RT and Ca^++-signals after addition of the agonists were measured in a Fluorescence Image Plate Reader (FLIPR from Molecular Devices, Crawley, England). The peak of the Ca^++-transient was considered as the relevant signal and the mean values of corresponding wells were analysed as described below.
NK1, sequence (P25103 whole entry): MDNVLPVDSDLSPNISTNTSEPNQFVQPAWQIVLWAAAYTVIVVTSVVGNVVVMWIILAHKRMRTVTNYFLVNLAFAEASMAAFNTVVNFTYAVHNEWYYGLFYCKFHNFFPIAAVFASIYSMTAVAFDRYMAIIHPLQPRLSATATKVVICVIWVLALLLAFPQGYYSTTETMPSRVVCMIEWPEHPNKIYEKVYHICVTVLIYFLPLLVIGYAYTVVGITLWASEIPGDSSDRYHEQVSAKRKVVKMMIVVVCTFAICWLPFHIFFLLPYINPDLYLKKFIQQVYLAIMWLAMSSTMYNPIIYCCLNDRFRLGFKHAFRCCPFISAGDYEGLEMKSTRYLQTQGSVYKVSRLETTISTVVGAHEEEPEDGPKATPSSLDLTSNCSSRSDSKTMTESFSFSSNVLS
(§2) The sigmoidal dose response curves were analysed by computerised curve-fitting, using the GraphPad Program. […] For antagonist responses the IC50-value was calculated using non-linear regression.

The target of a further test is T1, NK3 (Homo sapiens, UniProt P29371).
T1 sequence (P29371 1-465): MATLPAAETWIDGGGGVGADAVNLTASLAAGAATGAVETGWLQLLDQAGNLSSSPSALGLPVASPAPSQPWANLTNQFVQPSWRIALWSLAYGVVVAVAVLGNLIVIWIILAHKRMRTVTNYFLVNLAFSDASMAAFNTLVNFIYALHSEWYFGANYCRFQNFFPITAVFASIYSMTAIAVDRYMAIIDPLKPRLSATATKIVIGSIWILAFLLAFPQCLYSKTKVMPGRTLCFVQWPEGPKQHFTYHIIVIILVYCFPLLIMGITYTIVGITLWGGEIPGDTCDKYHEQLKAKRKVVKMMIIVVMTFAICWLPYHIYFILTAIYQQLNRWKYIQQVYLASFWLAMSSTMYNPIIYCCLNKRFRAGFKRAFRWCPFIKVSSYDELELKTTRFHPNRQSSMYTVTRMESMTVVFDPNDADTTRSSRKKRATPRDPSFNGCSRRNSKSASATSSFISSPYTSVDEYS
The test can be described thus: Signal transduction (ST), intracellular Ca++ (FLIPR), NK3. It counts as cell-based. The following applies: read-out: pIC50 NK3 (converted). On the procedure: [The source words this procedure for another target and reports this target under the same test.] as §1, §2

Turning to `O=C(c1cc(C(F)(F)F)cc(C(F)(F)F)c1)N1CC[C@@H](N2CCCN(C3CCCN(Cc4ccccc4)C3)CC2)C[C@H]1Cc1ccccc1` (stereo partly drawn) [Compound 110], the IC50 at NK1 was 0.2 µM.
On to `O=C(C1CC1)N1CCCC(N2CCCN([C@@H]3CCN(C(=O)c4cc(C(F)(F)F)cc(C(F)(F)F)c4)[C@H](Cc4ccccc4)C3)CC2)C1` (stereo partly drawn) [Compound 114], for which the IC50 is 0.126 µM at NK1 and 7.94 µM on NK3.
In the same order, the values of `Cc1occc1C(=O)N1CCCC(N2CCN([C@H]3CCN(C(=O)c4cc(C(F)(F)F)cc(C(F)(F)F)c4)[C@H](Cc4ccccc4)C3)CC2)C1` (stereo partly drawn) [Compound 19] are 0.0251 µM and 2 µM.
In the same order, the values of `O=C(c1ccccc1Cl)N1CCCC(N2CCCN([C@H]3CCN(C(=O)c4cc(C(F)(F)F)cc(C(F)(F)F)c4)[C@H](Cc4ccccc4)C3)CC2)C1` (stereo partly drawn) [Compound 118] are 0.0631 µM and 2.51 µM.
As to `O=C(c1cc(C(F)(F)F)cc(C(F)(F)F)c1)N1CCC(N2CCN(C3CCCN(Cc4ccccc4)C3)CC2)CC1Cc1ccccc1` (stereo not drawn) [Compound 1], the IC50 at NK1 was 0.0501 µM.
Take `O=C(C1CCOC1)N1CCCC(N2CCN([C@H]3CCN(C(=O)c4cc(C(F)(F)F)cc(C(F)(F)F)c4)[C@H](Cc4ccccc4)C3)CC2)C1` (stereo partly drawn) [Compound 16]: the values for the IC50 on NK1 and on NK3 were 0.0126 µM and 1 µM, respectively.
For `O=C(c1ccc(CCOCc2ccccc2)s1)N1CCCC(N2CCN(C3CCN(C(=O)c4cc(C(F)(F)F)cc(C(F)(F)F)c4)C(Cc4ccccc4)C3)CC2)C1` (stereo not drawn) [Compound 93] the same measures were 0.126 µM and 5.01 µM.
`Cc1cc(C(=O)N2CCCC(N3CCN([C@H]4CCN(C(=O)c5cc(C(F)(F)F)cc(C(F)(F)F)c5)[C@H](Cc5ccccc5)C4)CC3)C2)n(C)n1` (stereo partly drawn) [Compound 42]: the IC50 is 0.00794 µM at NK1 and 2.51 µM on NK3.
Turning to `O=C(c1ccco1)N1CCCC(N2CCN([C@H]3CCN(C(=O)c4cc(C(F)(F)F)cc(C(F)(F)F)c4)[C@H](Cc4ccccc4)C3)CC2)C1` (stereo partly drawn) [Compound 18], the IC50 was 0.02 µM at NK1 and 2.51 µM at NK3.
As to `CC(=O)N1CCC[C@H]1C(=O)N1CCCC(N2CCN([C@H]3CCN(C(=O)c4cc(C(F)(F)F)cc(C(F)(F)F)c4)[C@H](Cc4ccccc4)C3)CC2)C1` (stereo partly drawn) [Compound 60], the IC50 at NK1 was 0.00501 µM; at NK3, 6.31 µM.
For `CC1(C(=O)N2CCCC(N3CCN([C@H]4CCN(C(=O)c5cc(C(F)(F)F)cc(C(F)(F)F)c5)[C@H](Cc5ccccc5)C4)CC3)C2)CC1` (stereo partly drawn) [Compound 14] the same measures were 0.0126 µM and 2 µM.
Consider `Cc1cc(C)cc(C(=O)N2CCCC(N3CCN([C@@H]4CCN(C(=O)c5cc(C(F)(F)F)cc(C(F)(F)F)c5)[C@H](Cc5ccccc5)C4)CC3)C2)c1.O=C(O)/C=C/C(=O)O.O=C(O)/C=C/C(=O)O` (stereo partly drawn) [Compound 13], for which the “pIC50 NK1” value against NK1 is 6.3.
As for `O=C(c1ccoc1)N1CCCC(N2CCCN(C3CCN(C(=O)c4cc(C(F)(F)F)cc(C(F)(F)F)c4)C(Cc4ccccc4)C3)CC2)C1` (single isomer, unassigned) [Compound 112], the IC50 at NK1 was 0.158 µM.
Regarding `O=C(c1cc(C(F)(F)F)cc(C(F)(F)F)c1)N1CCC(N2CCN(C3CCCNC3)CC2)CC1Cc1ccccc1` (stereo not drawn) [Compound 2], the IC50 on NK1 is 0.02 µM.
Regarding `O=C(c1cc(C(F)(F)F)cc(C(F)(F)F)c1)N1CCC(N2CCN(C3CCCNC3)CC2)CC1Cc1ccccc1` (stereo not drawn) [Compound 108], the IC50 at NK1 was 0.0794 µM.
With `O=C(c1ccccc1Cl)N1CCCC(N2CCCN([C@@H]3CCN(C(=O)c4cc(C(F)(F)F)cc(C(F)(F)F)c4)[C@H](Cc4ccccc4)C3)CC2)C1` (stereo partly drawn) [Compound 119], on NK1, the IC50 is 0.126 µM.
On to `O=C(c1cc(C(F)(F)F)cc(C(F)(F)F)c1)N1CC[C@H](N2CCCN(C3CCCN(S(=O)(=O)c4cccs4)C3)CC2)C[C@H]1Cc1ccccc1` (stereo partly drawn) [Compound 122], for which the IC50 at NK1 was 0.1 µM.
As for `O=C(c1cc(C(F)(F)F)cc(C(F)(F)F)c1)N1CCC(N2CCN(C3CCCNC3)CC2)CC1Cc1ccccc1` (single isomer, unassigned) [Compound 109], the “pIC50 NK1” value against NK1 was found to be 7.3.
